Experiments:
[1] = tested on: critically ill patients admitted to the intensive care unit (ICU); test: Occurrence of VTE in critically ill (ICU) patients, post hoc analysis of randomized trial; assay type: in vivo, human
Text: (§1) A multi-center, double-blind, randomized controlled trial enrolled 7,513 patients hospitalized for an acute medical illness with the following eligibility criteria: (1) hospitalization for acute medical illness, including heart failure, respiratory failure, infection, ischemic stroke, or rheumatic disorder; (2) age≥75 years, age 60 to 74 years with D-dimer≥2×the upper limit of normal (ULN), or age 40 to 59 years with D-dimer≥2×ULN and history of VTE or cancer; (3) anticipated severe immobilization for ≥24 hours followed by moderate or severe immobilization for 3 or more days; and (4) anticipated hospitalization for 3 or more days. Patients were randomly allocated in a 1:1 ratio to extended-duration betrixaban (35 to 42 days) or standard-duration enoxaparin (10±4 days).
(§2) The present study is a post hoc analysis of the effect of betrixaban in critically ill patients admitted to the intensive care unit (ICU) during the index hospitalization and received extended-duration betrixaban. The study population included in the present analysis was subjects admitted to the ICU during the index hospitalization event.
(§3) The primary efficacy endpoint was the occurrence of VTE, defined as a composite of asymptomatic proximal DVT, symptomatic DVT, non-fatal pulmonary embolism (PE), or VTE-related mortality. Safety endpoints were the occurrence of major bleeding and clinically relevant non-major bleeding, defined according to the International Society on Thrombosis and Haemostasis (ISTH) criteria. (Schulman S, Kearon C, Subcommittee on Control of Anticoagulation of the S, Standardization Committee of the International Society on T, Haemostasis. Definition of major bleeding in clinical investigations of antihemostatic medicinal products in non-surgical patients. J Thromb Haemost. 2005; 3:692-694; and Kaatz S, Ahmad D, Spyropoulos AC, Schulman S, Subcommittee on Control of A. Definition of clinically relevant non-major bleeding in studies of anticoagulants in atrial fibrillation and venous thromboembolic disease in non-surgical patients: communication from the SSC of the ISTH. J Thromb Haemost. 2015; 13:2119-2126.) All events were adjudicated by an independent clinical events committee blinded to thromboprophylaxis allocation.
(§4) Baseline characteristics of study participants were compared between treatment arms using the chi-squared test for categorical variables and one-way analysis of variance (ANOVA) for continuous variables, respectively. We analyzed efficacy using a modified intention-to-treat (mITT) population, which included subjects who received at least one dose of study medication and had data on one or more of the efficacy components. The bleeding risk of thromboprophylaxis was analyzed with the actual regimen received in the safety population, which included all randomized patients who received at least one dose of study medication. […] Absolute risk difference and relative risk of betrixaban vs. enoxaparin group were calculated and compared using the chi-squared test. The Breslow-Day test of homogeneity was performed to assess the effect modification by ICU admission on the thromboprophylaxis. All analyses were performed using two-sided tests at a significance level of 0.05 with SAS software version 9.4 (SAS Institute, Inc., North Carolina, United States).

[2] = tested on: critically ill patients admitted to the intensive care unit (ICU); test: Occurrence of major bleeding (ISTH) in critically ill (ICU) patients; assay type: in vivo
Text: as §1, §2, §3, §4

[3] = tested on: critically ill patients admitted to the intensive care unit (ICU); test: Occurrence of major or clinically relevant non-major bleeding (ISTH) in critically ill (ICU) patients; assay type: in vivo
Text: as §1, §2, §3, §4

[4] = tested on: non-critically ill patients; test: Occurrence of VTE in non-critically ill patients; assay type: in vivo, human
Text: as §1, with “Patients were randomly allocated in a 1:1 ratio to extended-duration betrixaban (35 to 42 days) or standard-duration enoxaparin (10±4 days).” left out
as §4, with “The Breslow-Day test of homogeneity was performed to assess the effect modification by ICU admission on the thromboprophylaxis. All analyses were performed using two-sided tests at a significance level of 0.05 with SAS software version 9.4 (SAS Institute, Inc., North Carolina, United States).” left out

[5] = tested on: non-critically ill patients; test: Occurrence of major bleeding in non-critically ill patients; assay type: in vivo
Text: as §1, with “Patients were randomly allocated in a 1:1 ratio to extended-duration betrixaban (35 to 42 days) or standard-duration enoxaparin (10±4 days).” left out
as §4, with “The Breslow-Day test of homogeneity was performed to assess the effect modification by ICU admission on the thromboprophylaxis. All analyses were performed using two-sided tests at a significance level of 0.05 with SAS software version 9.4 (SAS Institute, Inc., North Carolina, United States).” left out

[6] = Exposure of betrixaban on co-administration with a Pgp inhibitor; assay type: in vivo; conditions: concomitant Pgp inhibitor
[7] = full-dose stratum (betrixaban 80 mg daily vs. enoxaparin 40 mg daily), end of study through 77 days
[8] = full-dose stratum (betrixaban 80 mg daily vs. enoxaparin 40 mg daily), end of study through 77 days, listed as betrixaban
[9] = full-dose stratum (betrixaban 80 mg daily vs. enoxaparin 40 mg daily), through 42 days
[10] = full-dose stratum, through 42 days
[11] = full-dose stratum, through 77 days
[12] = mITT population, end of extended thromboprophylaxis through 42 days
[13] = mITT population, end of study through 77 days
[14] = mITT population, through 42 days
[15] = mITT population, through 77 days
[16] = full-dose stratum (betrixaban 80 mg daily vs. enoxaparin 40 mg daily), through 7 days after discontinuation
[17] = full-dose stratum (betrixaban 80 mg daily vs. enoxaparin 40 mg daily), through 7 days after discontinuation, listed as betrixaban
[18] = full-dose stratum, through 7 days after discontinuation
[19] = safety population, end of study through 77 days
[20] = safety population, end of study through 77 days, listed as betrixaban
[21] = safety population, through 7 days after discontinuation
[22] = safety population, through 7 days after discontinuation of study medication
[23] = safety population, through 7 days after discontinuation of study medication, listed as betrixaban
[24] = safety population, through 77 days

Compound: COc1ccc(NC(=O)c2ccc(C(=N)N(C)C)cc2)c(C(=O)Nc2ccc(Cl)cn2)c1 [Betrixaban, N-(5-chloropyridin-2-yl)-2-(4-(N,N-dimethylcarbamimidoyl)benzamido)-5-methoxybenzamide]
- reduction of the risk of VTE compared with enoxaparin ([1]; critically ill patients, end of extended thromboprophylaxis through 42 days): 46%
- relative risk reduction of VTE compared with enoxaparin ([1]; critically ill patients, end of study through 77 days): 52%
- risk reduction in the VTE components (asymptomatic proximal DVT, symptomatic DVT, non-fatal PE, VTE-related death) ([1]; critically ill patients, vs. enoxaparin): did not reach statistical difference
- VTE events / patients (n/N) [1, 7]: 9/214
- risk of VTE (rate) [1, 7]: (4.21%)
- risk of VTE (rate) [1, 8]: 4.21%
- VTE events / patients (n/N) [1, 9]: 9/271
- risk of VTE (rate) [1, 9]: (3.32%)
- risk of VTE (rate) ([1]; full-dose stratum (betrixaban 80 mg daily vs. enoxaparin 40 mg daily), through 42 days, listed as betrixaban): 3.32%
- VTE ARD (absolute risk difference) betrixaban vs. enoxaparin [1, 10]: −5.01%
- VTE NNT or NNH [1, 10]: 20
- VTE RR (relative risk) betrixaban vs. enoxaparin [1, 10]: 0.40
- VTE ARD (absolute risk difference) betrixaban vs. enoxaparin [1, 11]: −7.20%
- VTE NNT or NNH [1, 11]: 14
- VTE RR (relative risk) betrixaban vs. enoxaparin [1, 11]: 0.37
- VTE events / patients (n/N) [1, 12]: 15/351
- risk of VTE (rate) [1, 12]: (4.27%)
- risk of VTE (rate) ([1]; mITT population, end of extended thromboprophylaxis through 42 days, listed as betrixaban): 4.27%
- VTE events / patients (n/N) [1, 13]: 15/286
- risk of VTE (rate) [1, 13]: (5.24%)
- risk of VTE (rate) ([1]; mITT population, end of study through 77 days, listed as betrixaban): 5.24%
- VTE ARD (absolute risk difference) betrixaban vs. enoxaparin [1, 14]: −3.68%
- VTE NNT or NNH [1, 14]: 28
- VTE RR (relative risk) betrixaban vs. enoxaparin [1, 14]: 0.54
- VTE ARD (absolute risk difference) betrixaban vs. enoxaparin [1, 15]: −5.63%
- VTE NNT or NNH [1, 15]: 18
- VTE RR (relative risk) betrixaban vs. enoxaparin [1, 15]: 0.48
- major bleeding events / patients (n/N) [2, 7]: 1/271
- risk of major bleeding (rate) [2, 7]: (0.37%)
- risk of major bleeding (rate) [2, 8]: 0.37%
- major bleeding events / patients (n/N) [2, 16]: 0/271
- risk of major bleeding (rate) [2, 16]: (0.00%)
- risk of major bleeding (rate) [2, 17]: 0.00%
- major bleeding ARD betrixaban vs. enoxaparin [2, 18]: −3.26%
- major bleeding NNT or NNH [2, 18]: 31
- major bleeding ARD betrixaban vs. enoxaparin [2, 11]: −3.25%
- major bleeding NNT or NNH [2, 11]: 31
- major bleeding RR betrixaban vs. enoxaparin [2, 11]: 0.10
- major bleeding events / patients (n/N) [2, 19]: 5/351
- risk of major bleeding (rate) [2, 19]: (1.42%)
- risk of major bleeding (rate) [2, 20]: 1.42%
- major bleeding ARD betrixaban vs. enoxaparin [2, 21]: −1.99%
- major bleeding RR betrixaban vs. enoxaparin [2, 21]: 0.36
- major bleeding events / patients (n/N) [2, 22]: 4/351
- risk of major bleeding (rate) [2, 22]: (1.14%)
- risk of major bleeding (rate) [2, 23]: 1.14%
- major bleeding ARD betrixaban vs. enoxaparin [2, 24]: −1.98%
- major bleeding RR betrixaban vs. enoxaparin [2, 24]: 0.42
- major or clinically relevant non-major bleeding events / patients (n/N) [3, 7]: 11/271
- risk of major or clinically relevant non-major bleeding (rate) [3, 7]: (4.06%)
- risk of major or clinically relevant non-major bleeding (rate) [3, 8]: 4.06%
- major or clinically relevant non-major bleeding events / patients (n/N) [3, 16]: 9/271
- risk of major or clinically relevant non-major bleeding (rate) [3, 16]: (3.32%)
- risk of major or clinically relevant non-major bleeding (rate) [3, 17]: 3.32%
- major or clinically relevant non-major bleeding ARD betrixaban vs. enoxaparin [3, 18]: −0.30%
- major or clinically relevant non-major bleeding RR betrixaban vs. enoxaparin [3, 18]: 0.92
- major or clinically relevant non-major bleeding ARD betrixaban vs. enoxaparin [3, 11]: 0.07%
- major or clinically relevant non-major bleeding RR betrixaban vs. enoxaparin [3, 11]: 1.02
- major or clinically relevant non-major bleeding events / patients (n/N) [3, 19]: 15/351
- risk of major or clinically relevant non-major bleeding (rate) [3, 19]: (4.27%)
- risk of major or clinically relevant non-major bleeding (rate) [3, 20]: 4.27%
- major or clinically relevant non-major bleeding ARD betrixaban vs. enoxaparin [3, 21]: 0.29%
- major or clinically relevant non-major bleeding RR betrixaban vs. enoxaparin [3, 21]: 1.09
- major or clinically relevant non-major bleeding events / patients (n/N) [3, 22]: 13/351
- risk of major or clinically relevant non-major bleeding (rate) [3, 22]: (3.70%)
- risk of major or clinically relevant non-major bleeding (rate) [3, 23]: 3.70%
- major or clinically relevant non-major bleeding ARD betrixaban vs. enoxaparin [3, 24]: 0.58%
- major or clinically relevant non-major bleeding RR betrixaban vs. enoxaparin [3, 24]: 1.16
- reduction of VTE risk ([4]; end of extended thromboprophylaxis): 23%
- reduction of VTE risk ([4]; end of study): 24%
- rates of major bleeding, betrixaban vs. enoxaparin [5]: no difference
- effect of Pgp inhibitor on exposure of betrixaban [6]: increases the exposure

Compound: Enoxaparin [reference compound]
- VTE events / patients (n/N) [1, 7]: 26/228
- risk of VTE (rate) [1, 7]: (11.40%)
- risk of VTE (rate) ([1]; full-dose stratum (betrixaban 80 mg daily vs. enoxaparin 40 mg daily), end of study through 77 days, listed as enoxaparin): 11.40%
- VTE events / patients (n/N) [1, 9]: 23/276
- risk of VTE (rate) [1, 9]: (8.33%)
- risk of VTE (rate) ([1]; full-dose stratum (betrixaban 80 mg daily vs. enoxaparin 40 mg daily), through 42 days, listed as enoxaparin): 8.33%
- VTE events / patients (n/N) [1, 12]: 28/352
- risk of VTE (rate) [1, 12]: (7.95%)
- risk of VTE (rate) ([1]; mITT population, end of extended thromboprophylaxis through 42 days, listed as enoxaparin): 7.95%
- VTE events / patients (n/N) [1, 13]: 31/285
- risk of VTE (rate) [1, 13]: (10.88%)
- risk of VTE (rate) ([1]; mITT population, end of study through 77 days, listed as enoxaparin): 10.88%
